Format in all cases: cell-based
One test relates to DENV2 replicon. As to the kind of experiment: DENV-2 Huh-7 Rep EC50 (replicon luminescence). The procedure, abridged: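 Huh-7 cells carrying a DENV2 replicon, 5,000 cells/well, were incubated with dosed compounds for 48 h at 37° C. EnduRen live-cell substrate was added 1.5 h before luminescence reading. EC50 came from dose-response against DMSO-only wells.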
The next test deals with RSV A2. As to the kind of experiment: RSV NHBE EC50 (RSV A2 antiviral assay in NHBE cells). To be noted: read-out: RSV NHBE EC50. The procedure, abridged: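 Antiviral activity against RSV A2 was determined in NHBE cells used within 6 passages, with cell viability quantified by CellTiter-Glo after a 4-day infection.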
The next test has as its system RSV strain A2. The test is described as follows: microbe, parasite or virus in culture. The note with it: Table 3, HEp-2 cells, RSV A2, 4 days, read-out: RSV HEp-2 EC50. The procedure, abridged: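 Cytopathic-effect protection assay: HEp-2 cells (50,000/mL) infected with pre-titered RSV A2 onto 3-fold serial compound dilutions, incubated 4 days at 37° C. Cell viability read by CellTiter-Glo luminescence; percent inhibition derived against 0% and 100% virus-inhibition controls.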

For test [1], the system named is Dengue 2, New Guinea strain (NGC). As to the kind of experiment: DENV moDC EC50 (qPCR in human monocyte-derived dendritic cells). To be noted: Table 3, human moDCs, 48 hours. The protocol:
Human monocyte-derived dendritic cells (moDCs) were derived from CD14+ monocytes (AllCells) cultured in Human Mo-DC Differentiation medium containing GM-CSF and IL-4 (Miltenyi Biotec). On day 7, moDCs were harvested by mechanical disruption, washed and suspended in serum-free RPMI. moDCs were infected with Vero-derived Dengue 2, New Guinea strain (NGC) at a MOI=0.1 for two hours in serum-free RPMI with gentle agitation at 37° C. Cells were washed and resuspended in 10% serum-containing RPMI (Gibco, supplemented with sodium pyruvate, NEAA, Penicillin-Streptomycin). […] were plated in triplicate in 96-well plates with compounds dispensed at graded doses (Hewlett-Packard D300 Digital Dispenser). All wells were normalized to 0.25% DMSO. At 48 hours, cells were washed with 1×PBS and all supernatants removed. Total RNA was extracted using RNEasy 96 plates (Qiagen) and used to generate first-strand cDNA using XLT cDNA 5× Supermix (QuantaBio). cDNA was used as a template in a Taqman qPCR duplex reaction specific to DENV2 viral and GAPDH gene expression. EC50 values were determined using Prism Graphpad software, with normalization to a positive control and no compound negative control wells.
For orientation: Quantitative PCR measures a nucleic acid by following its amplification.

Where [2] appears, read: Dengue virus, DENV2, Huh-7, 48 h, read-out: DENV-2 REP Huh7 EC50.
Where [3] appears, read: human respiratory syncytial virus, NHBE, 96 h, Table 3, NHBE cells, RSV A2, 4 days.
[4] abbreviates: human respiratory syncytial virus, NHBE, Table 5 comparative activity, 2',3'-OH vs -OC(O)iPr.
Setting [5] is: human respiratory syncytial virus, HEp-2, 96 h.
The mark [6] stands for this setting: Table 3, Huh-7 DENV2 replicon cells, 48 hours, read-out: DENV-2 REP Huh7 EC50.
The mark [7] stands for this setting: Table 3, NHBE cells, RSV A2, 4 days.

The structures appear in SMILES notation. Like-named read-outs stand apart in the source and are kept apart here.

Consider twelve molecules from patent US12264173B2 (GILEAD SCIENCES, INC., priority 2020, dated 2025).

For `COC(=O)[C@H](C)N[P@](=O)(OC[C@@]1(C#N)O[C@@H](c2ccc3c(N)ncnn23)[C@H](OC(=O)C(C)C)[C@@H]1OC(=O)C(C)C)Oc1ccccc1` (single isomer, unassigned) [Example 140], the EC50 amounted to 5270 nM with DENV2 replicon (setting [2]); 14 nM in the test on RSV A2 (setting [3]); 14 nM in the test on RSV A2 (setting [4]); 42 nM in the test with RSV strain A2 (setting [5]); 90 nM in test [1] (Dengue virus, Dendritic cell).

For `CCC(=O)O[C@H]1[C@H](c2ccc3c(N)ncnn23)O[C@](C#N)(CO[P@@](=O)(N[C@@H](C)C(=O)OC)Oc2ccccc2)[C@H]1OC(=O)CC` (single isomer, unassigned) [Example 143], the EC50 turned out to be 5570 nM in the test with DENV2 replicon (setting [2]); 18 nM with RSV A2 (setting [3]); 92 nM with RSV strain A2 (setting [5]); 164 nM in test [1] (Dengue virus, Dendritic cell).

As for `CCOC(=O)[C@H](C)N[P@](=O)(OC[C@@]1(C#N)O[C@@H](c2ccc3c(N)ncnn23)[C@H](OC(=O)C(C)C)[C@@H]1OC(=O)C(C)C)Oc1ccccc1` (single isomer, unassigned) [Example 144], the EC50 with DENV2 replicon (setting [2]) was determined as 6170 nM; with DENV2 replicon (Dengue virus, DENV2, Huh-7, read-out: DENV Rep EC50), 6170 nM; with RSV A2 (setting [3]), 22 nM; with RSV A2 (setting [4]), 22 nM; with RSV strain A2 (setting [5]), 34 nM; in test [1] (Dengue virus, Dendritic cell) it was 31 nM.

For `CC(C)C(=O)O[C@H]1[C@H](c2ccc3c(N)ncnn23)O[C@](C#N)(COP(=O)(N[C@@H](C)C(=O)OCC2CCOCC2)Oc2ccccc2)[C@H]1OC(=O)C(C)C` (single isomer, unassigned) [Example 183], the EC50 in the test with DENV2 replicon (setting [6]) was determined as 3650 nM; in the test with RSV A2 (setting [7]), 50 nM; in the test with RSV strain A2, 69 nM; in test [1], 142 nM.

Consider `CC(C)C(=O)O[C@H]1[C@H](c2ccc3c(N)ncnn23)O[C@](C#N)(COP(=O)(N[C@@H](C)C(=O)OC2COC2)Oc2ccccc2)[C@H]1OC(=O)C(C)C` (single isomer, unassigned) [Example 186], for which the EC50 with DENV2 replicon (setting [6]) was determined as 4220 nM; with RSV A2 (setting [7]), 4 nM; with RSV strain A2 it was 41 nM.

Turning to `CC(C)C(=O)O[C@H]1[C@H](c2ccc3c(N)ncnn23)O[C@](C#N)(COP(=O)(N[C@@H](C)C(=O)OCC2COC2)Oc2ccccc2)[C@H]1OC(=O)C(C)C` (single isomer, unassigned) [Example 201], the EC50 with DENV2 replicon (setting [6]) was 7690 nM; in the test on RSV A2 (setting [7]), 14 nM; in the test on RSV strain A2, 92 nM; in test [1], 57 nM.

As to `CCC(CC)COC(=O)[C@H](C)N[P@](=O)(OC[C@@]1(C#N)O[C@@H](c2ccc3c(N)ncnn23)C(OC(=O)C(C)C)[C@@H]1OC(=O)C(C)C)Oc1ccccc1` (stereo in doubt) [Example 86, (2R,3S,4R,5S)-5-(4-aminopyrrolo[2,1-f][1,2,4]triazin-7-yl)-2-cyano-2-((((S)-(((S)-1-(2-ethylbutoxy)-1-oxopropan-2-yl)amino)(phenoxy)phosphoryl)oxy)methyl) tetrahydrofuran-3,4-diyl bis(2-methylpropanoate)], the EC50 with DENV2 replicon (setting [2]) stood at 8950 nM; in the test on RSV A2 (setting [3]), 24 nM; in the test with RSV strain A2 (setting [5]), 100 nM; in test [1] (Dengue virus, Dendritic cell) it was 239 nM.

With `CC(C)C(=O)O[C@H]1[C@H](c2ccc3c(N)ncnn23)O[C@](C#N)(CO[P@@](=O)(N[C@@H](C)C(=O)OC2CCCCC2)Oc2ccccc2)[C@H]1OC(=O)C(C)C` [Example 77, (2R,3S,4S,5S)-5-(4-aminopyrrolo[2,1-f][1,2,4]triazin-7-yl)-2-cyano-2-((((S)-(((S)-1-(cyclohexyloxy)-1-oxopropan-2-yl)amino)(phenoxy)phosphoryl)oxy)methyl) tetrahydrofuran-3,4-diyl bis(2-methylpropanoate)], the EC50 in the test with DENV2 replicon (setting [2]) was 5390 nM; in the test with RSV A2 (setting [3]), 24 nM; in the test with RSV strain A2 (setting [5]), 57 nM; in test [1] (Dengue virus, Dendritic cell), 185 nM.

In the case of `CCC(=O)O[C@H]1[C@H](c2ccc3c(N)ncnn23)O[C@](C#N)(CO[P@@](=O)(N[C@@H](C)C(=O)OC2CCCCC2)Oc2ccccc2)[C@H]1OC(=O)CC` [Example 82, (2R,3S,4S,5S)-5-(4-aminopyrrolo[2,1-f][1,2,4]triazin-7-yl)-2-cyano-2-((((S)-(((S)-1-(cyclohexyloxy)-1-oxopropan-2-yl)amino)(phenoxy)phosphoryl)oxy)methyl) tetrahydrofuran-3,4-diyl dipropionate], the 50% effective concentration (EC50) in the test on DENV2 replicon (setting [2]) is 7630 nM; in the test on RSV A2 (setting [3]) it was 32 nM; with RSV strain A2 (setting [5]) it was 58 nM; in test [1] (Dengue virus, Dendritic cell), 786 nM.

Turning to `CCC(=O)O[C@H]1[C@H](c2ccc3c(N)ncnn23)O[C@](C#N)(CO[P@@](=O)(N[C@@H](C)C(=O)OC(C)C)Oc2ccccc2)[C@H]1OC(=O)CC` [Example 90, (2R,3S,4S,5S)-5-(4-Aminopyrrolo[2,1-f][1,2,4]triazin-7-yl)-2-cyano-2-((((S)-(((S)-1-isopropoxy-1-oxopropan-2-yl)amino)(phenoxy)phosphoryl)oxy)methyl) tetrahydrofuran-3,4-diyl dipropionate], the EC50 in the test on DENV2 replicon (setting [2]) is 24300 nM; in the test on RSV A2 (setting [3]) it was 45 nM; with RSV strain A2 (setting [5]) it was 109 nM; in test [1] (Dengue virus, Dendritic cell), 677 nM.

For `CCC(=O)O[C@H]1[C@H](c2ccc3c(N)ncnn23)O[C@](C#N)(CO[P@@](=O)(N[C@@H](C)C(=O)OCC2CC2)Oc2ccccc2)[C@H]1OC(=O)CC` [Example 99], the EC50 stood at 6310 nM in the test with DENV2 replicon (setting [6]), 14 nM in the test with RSV A2 (setting [7]) and 58 nM in the test on RSV strain A2.

In the case of `COC(=O)[C@H](C)N[P@](=O)(OC[C@@]1(C#N)O[C@@H](c2ccc3c(=N)n(COP(=O)(O)O)cnn23)[C@H](OC(=O)C(C)C)[C@@H]1OC(=O)C(C)C)Oc1ccccc1` [Example 259, (2R,3S,4S,5S)-2-cyano-5-(4-imino-3-((phosphonooxy)methyl)-3,4-dihydropyrrolo[2,1-f][1,2,4]triazin-7-yl)-2-((((S)-(((S)-1-methoxy-1-oxopropan-2-yl)amino)(phenoxy)phosphoryl)oxy)methyl)tetrahydrofuran-3,4-diyl bis(2-methylpropanoate)], the EC50 with DENV2 replicon (setting [2]) is 5360 nM; with RSV A2 (setting [3]), 11 nM; in the test with RSV strain A2 (setting [5]) it was 36 nM.

Broadly, the EC50 is the concentration needed to bring the measured effect to its halfway point.
